ChEMBL document CHEMBL6096644, “Synthesis and structure-affinity relationships of spirocyclic σ1 receptor ligands with tetrahydropyran scaffold” (Eur J Med Chem, 2025)

Tests used:
[1] = physchem; conditions: n-octanol/MOPS aqueous buffer, pH 7.4
Description: Distribution coefficient, logD of compound in n-Octanol/MOPS aqueous buffer at pH 7.4 by shake-flask method based mass spectrometry analysis

[2] = in vitro; conditions: mouse, liver microsomes
Description: Metabolic stability in mouse liver microsomes assessed as parent compound remaining measured after 90 mins in presence of NADPH/H+ by HPLC analysis

[3] = in vitro; conditions: human, human serum
Description: Plasma protein binding in human serum by HPAC analysis

Structure (SMILES) | logD [1] | remaining at 1.5 h [2] | fraction unbound [3]
Oc1cccc(CN2CCC3(CC2)CC(CCc2ccccc2)CCO3)c1 (stereo not given) | 3.33 |  | 
c1cc2c(cc1C1CCOC3(CCN(CC4CCCC4)CC3)C1)CCO2 (stereo not given) | 2.34 |  | 
O=c1oc2ccccc2n1C1CCOC2(CCN(Cc3ccccc3)CC2)C1 (stereo not given) | 2.42 | 74% | 0.15
